Results taken from PMC9958325 (Nature Communications, 2023).
Where “and” joins values, the source holds several entries; their conditions need not be identical. Identical values can stand only once. Like-named read-outs stand apart in the source and are kept apart here.

What was measured:
[1] = Pharmacokinetic study in PXB-mice (human liver-chimeric)
[2] = system: SARS-CoV-2 TKYTS14631/ο BA.5; assay: microbe, parasite or virus in culture; format: cell-based
HeLa-ACE2-TMPRSS2 cells = assay: Intracellular concentrations of compounds (LC/MS), HeLa-ACE2-TMPRSS2 cells; settings: 6 h; for Intracellular amount, individual: listed as TKB-0245
[3] = system: SARS-CoV-2 TKYS02037/ο BA.2; assay: microbe, parasite or virus in culture; format: cell-based
SARS-CoV-2^WK-521 = assay: microbe, parasite or virus in culture; format: cell-based; set-up: EC95, individual assays / EC95, Average: unit: µM
[4] = system: SARS-CoV-2 UT-NCD1757-1N/ο BA.2.75; assay: microbe, parasite or virus in culture; format: cell-based
[5] = system: SARS-CoV-2 TKYX00012/ο BA.1; assay: microbe, parasite or virus in culture; format: cell-based

SMILES: CC(C)(C)[C@H](NC(=O)C(F)(F)F)C(=O)N1C[C@H]2[C@@H]([C@H]1C(=O)N[C@@H](C[C@@H]1CCNC1=O)C(=O)c1nc3c(F)cccc3s1)C2(C)C [TKB245]
- Plasma concentration ([1]; PXB-mice, p.o. 10 mg/kg, 8 hr, individual mice, listed as TKB0245, 10 mg/kg): 0.04 µg/ml and 0.03 µg/ml (2×)
- Plasma concentration ([1]; PXB-mice, p.o. 10 mg/kg, 1440 min, individual mice, listed as TKB0245, 10 mg/kg): 26 ng/mL and 21.9 ng/mL and 27.9 ng/mL
- Plasma concentration ([1]; PXB-mice, p.o. 10 mg/kg, 24 hr, individual mice, listed as TKB0245, 10 mg/kg): 0.03 µg/ml (2×) and 0.02 µg/ml
- Plasma concentration ([1]; i.v., 10 min, individual animals (3 per time point), LC/MS/MS, listed as TKB0245): 8436.54 ng/mL and 8433.45 ng/mL and 10625.21 ng/mL
- Plasma concentration ([1]; i.v., 60 min, individual animals (3 per time point), LC/MS/MS, listed as TKB0245): 2816.02 ng/mL and 2507.33 ng/mL and 3228.12 ng/mL
- Plasma concentration ([1]; i.v., 240 min, individual animals (3 per time point), LC/MS/MS, listed as TKB0245): 47.02 ng/mL and 52.34 ng/mL and 93.04 ng/mL
- Plasma concentration ([1]; i.v., 480 min, individual animals (3 per time point), LC/MS/MS, listed as TKB0245): 10.40 ng/mL and 14.76 ng/mL and 18.04 ng/mL
- Plasma concentration ([1]; i.v., 1440 min, individual animals (3 per time point), LC/MS/MS, listed as TKB0245): 13.63 ng/mL and 11.63 ng/mL and 10.43 ng/mL
- Oral F ([1]; male PXB-mouse 10 mg/kg i.v. and p.o., dose-normalized AUC ratio, 10 mg/kg): 47.7% and 48% and 48¶ %
- Plasma concentration ([1]; p.o., 10 min, individual animals (3 per time point), LC/MS/MS, listed as TKB0245): 914.50 ng/mL and 1553.11 ng/mL and 2872.30 ng/mL
- Plasma concentration ([1]; p.o., 60 min, individual animals (3 per time point), LC/MS/MS, listed as TKB0245): 1278.12 ng/mL and 1343.67 ng/mL and 1794.27 ng/mL
- Plasma concentration ([1]; p.o., 240 min, individual animals (3 per time point), LC/MS/MS, listed as TKB0245): 152.94 ng/mL and 98.79 ng/mL and 128.84 ng/mL
- Plasma concentration ([1]; p.o., 480 min, individual animals (3 per time point), LC/MS/MS, listed as TKB0245): 41.61 ng/mL and 34.39 ng/mL and 32.81 ng/mL
- Plasma concentration ([1]; p.o., 1440 min, individual animals (3 per time point), LC/MS/MS, listed as TKB0245): 25.98 ng/mL and 21.91 ng/mL and 27.88 ng/mL
- EC50 ([2]; read-out: EC50 against TKYTS14631/ο BA.5): 19 ± 5 nM
- EC50 ([2]; read-out: EC50 ο BA5, Average): 18.8 nM
- EC50 ([2]; read-out: EC50 ο BA5, individual assays): 16.1 nM and 24.7 nM and 15.6 nM
- Intracellular amount, avg (HeLa-ACE2-TMPRSS2 cells; Hela ACE2 TMPRSS2, 10uM): 0.603 pmol(total)
- Intracellular amount, individual (HeLa-ACE2-TMPRSS2 cells; Hela ACE2 TMPRSS2, 10uM): 0.6360 pmol(total) and 0.5701 pmol(total)
- Intracellular amount, avg (HeLa-ACE2-TMPRSS2 cells; Hela ACE2 TMPRSS2, 50uM): 4.167 pmol(total)
- Intracellular amount, individual (HeLa-ACE2-TMPRSS2 cells; Hela ACE2 TMPRSS2, 50uM): 4.585 pmol(total) and 3.749 pmol(total)
- Intracellular amount, avg (HeLa-ACE2-TMPRSS2 cells; Hela ACE2 TMPRSS2, 100uM): 8.85 pmol(total)
- Intracellular amount, individual (HeLa-ACE2-TMPRSS2 cells; Hela ACE2 TMPRSS2, 100uM): 8.312 pmol(total) and 9.388 pmol(total)
- EC50 ([3]; read-out: EC50 against TKYVS2037/ο BA.2): 45 ± 14 nM
- EC50 ([3]; read-out: EC50 ο BA2, Average): 45.3 nM
- EC50 ([3]; read-out: EC50 ο BA2, individual assays): 60 nM and 32 nM and 44 nM
- EC95, Average (SARS-CoV-2^WK-521): 0.53
- EC95, individual assays (SARS-CoV-2^WK-521): 0.59 and 0.09 and 0.55 and 0.89
- SARS-CoV2 RNA VeroE6 cell-based assay EC95 (SARS-CoV-2^WK-521): 530 nM and 530 ± 330 nM
- EC50 (SARS-CoV-2^WK-521; read-out: EC50, Average): 31.2 nM
- EC50 (SARS-CoV-2^WK-521; read-out: EC50, VeroE6 + 2 µM CP100356): 1 ± 1 nM
- EC50 (SARS-CoV-2^WK-521; read-out: EC50, VeroE6 with CP100356, Average): 1.56 nM
- EC50 (SARS-CoV-2^WK-521; read-out: EC50, VeroE6 with CP100356, individual assays): 1.4 nM and 2.37 nM and 0.9 nM
- EC50 (SARS-CoV-2^WK-521; read-out: EC50, individual assays): 40 nM and 20 nM and 50 nM and 15 nM
- EC50 (SARS-CoV-2^WK-521; read-out: SARS-CoV2 RNA VeroE6 cell-based assay EC50): 30 ± 20 nM
- EC50 ([4]; read-out: EC50 against UT-NCD1757-1N/ο BA.2.75): 49 ± 5 nM
- EC50 ([4]; read-out: EC50 ο BA2.75, Average): 49.3 nM
- EC50 ([4]; read-out: EC50 ο BA2.75, individual assays): 55 nM and 44 nM
- EC50 ([5]; read-out: EC50 ο BA1, Average): 13.7 nM
- EC50 ([5]; read-out: EC50 ο BA1, individual assays): 10 nM and 7 nM and 24.2 nM
